Common to all, as to format: cell-based
For one assay, the target named is T1, human TLR9 (Homo sapiens, UniProt Q9NR96).
T1 construct: host or cells: HEK-Blue cells
T1 sequence (Q9NR96 26-1032): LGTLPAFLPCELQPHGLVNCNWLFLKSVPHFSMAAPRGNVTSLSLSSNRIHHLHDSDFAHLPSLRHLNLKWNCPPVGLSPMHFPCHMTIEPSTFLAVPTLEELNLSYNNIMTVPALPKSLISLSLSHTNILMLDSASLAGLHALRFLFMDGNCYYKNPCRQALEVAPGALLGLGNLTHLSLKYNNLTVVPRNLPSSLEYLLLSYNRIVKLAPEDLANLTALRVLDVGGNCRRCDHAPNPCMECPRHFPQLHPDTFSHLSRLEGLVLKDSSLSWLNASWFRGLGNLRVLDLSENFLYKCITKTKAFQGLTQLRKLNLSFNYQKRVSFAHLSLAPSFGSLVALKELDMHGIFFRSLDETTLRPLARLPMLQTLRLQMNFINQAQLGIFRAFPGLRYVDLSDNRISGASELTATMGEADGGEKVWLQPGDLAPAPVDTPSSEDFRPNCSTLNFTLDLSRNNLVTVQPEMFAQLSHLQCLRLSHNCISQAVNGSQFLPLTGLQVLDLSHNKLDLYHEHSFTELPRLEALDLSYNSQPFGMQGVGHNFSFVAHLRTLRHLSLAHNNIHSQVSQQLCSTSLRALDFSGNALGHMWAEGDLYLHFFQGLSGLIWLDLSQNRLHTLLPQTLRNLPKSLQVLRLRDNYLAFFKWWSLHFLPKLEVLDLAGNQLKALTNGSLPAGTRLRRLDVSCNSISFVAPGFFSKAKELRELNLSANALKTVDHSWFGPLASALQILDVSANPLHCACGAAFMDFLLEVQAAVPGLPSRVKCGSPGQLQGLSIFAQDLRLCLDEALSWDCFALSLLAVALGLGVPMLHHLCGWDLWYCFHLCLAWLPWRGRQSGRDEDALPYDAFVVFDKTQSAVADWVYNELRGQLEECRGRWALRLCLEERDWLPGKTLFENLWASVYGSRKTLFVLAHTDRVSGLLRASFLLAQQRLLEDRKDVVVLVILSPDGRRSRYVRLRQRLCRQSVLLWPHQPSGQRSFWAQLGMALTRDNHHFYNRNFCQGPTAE
In words: TLR9 inhibition reporter assay (HEK-Blue SEAP). Particulars: HEK-Blue cells overexpressing human TLR9, stimulated with ODN2006 5 nM, 22 hour incubation. A digest of the protocol:
(§1)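 Percent inhibition reflects SEAP reduction after 22 h at 37° C, relative to agonist-plus-DMSO and known-inhibitor controls. Compounds (0.05 nM to 50 μM) were added 30 min before agonist: TLR9 cells received ODN2006 5 nM, TLR8 cells R848 15.9 μM, TLR7 cells gardiquimod 7.5 μM; human receptor-expressing HEK-Blue reporter lines.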
In general terms: Reporter assays use an easily measured gene product as a stand-in for the process of interest.

The target of another assay is T2, human TLR7 (Homo sapiens, UniProt Q9NYK1).
T2 construct: host or cells: HEK-Blue cells
T2 sequence (Q9NYK1 27-1049): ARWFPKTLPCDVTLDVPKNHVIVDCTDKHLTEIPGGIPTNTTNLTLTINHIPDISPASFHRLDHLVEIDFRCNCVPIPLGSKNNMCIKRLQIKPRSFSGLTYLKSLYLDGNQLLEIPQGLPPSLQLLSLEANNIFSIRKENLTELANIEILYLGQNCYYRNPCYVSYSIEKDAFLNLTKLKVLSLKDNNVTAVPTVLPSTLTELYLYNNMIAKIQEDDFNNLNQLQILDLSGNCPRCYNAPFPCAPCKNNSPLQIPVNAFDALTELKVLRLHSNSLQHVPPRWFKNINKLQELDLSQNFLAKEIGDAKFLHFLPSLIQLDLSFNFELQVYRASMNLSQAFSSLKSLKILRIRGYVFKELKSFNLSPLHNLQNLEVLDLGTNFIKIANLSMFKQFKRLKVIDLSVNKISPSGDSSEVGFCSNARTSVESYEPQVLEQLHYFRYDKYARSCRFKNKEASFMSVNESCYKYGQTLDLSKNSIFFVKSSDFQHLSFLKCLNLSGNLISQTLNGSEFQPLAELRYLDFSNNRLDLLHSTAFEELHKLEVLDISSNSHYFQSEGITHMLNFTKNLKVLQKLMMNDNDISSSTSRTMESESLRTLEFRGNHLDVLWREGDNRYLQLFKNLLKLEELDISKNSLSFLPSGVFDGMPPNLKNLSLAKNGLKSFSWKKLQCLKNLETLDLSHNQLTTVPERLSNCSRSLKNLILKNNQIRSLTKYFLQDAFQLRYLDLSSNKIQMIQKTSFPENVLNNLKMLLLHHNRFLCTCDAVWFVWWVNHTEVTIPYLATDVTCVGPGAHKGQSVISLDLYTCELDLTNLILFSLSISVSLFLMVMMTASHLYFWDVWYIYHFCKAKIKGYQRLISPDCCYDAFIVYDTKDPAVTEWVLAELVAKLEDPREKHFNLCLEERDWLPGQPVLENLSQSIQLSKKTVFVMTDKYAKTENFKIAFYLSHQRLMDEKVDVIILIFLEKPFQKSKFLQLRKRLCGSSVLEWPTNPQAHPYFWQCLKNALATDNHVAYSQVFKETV
In words: TLR7 inhibition reporter assay (HEK-Blue SEAP). Particulars: HEK-Blue cells overexpressing human TLR7, stimulated with gardiquimod 7.5 μM, 22 hour incubation. In outline:
as §1

The target in a further assay is T3, human TLR8 (Homo sapiens, UniProt Q9NR97).
T3 construct: host or cells: HEK-Blue cells
T3 sequence (Q9NR97 27-1041): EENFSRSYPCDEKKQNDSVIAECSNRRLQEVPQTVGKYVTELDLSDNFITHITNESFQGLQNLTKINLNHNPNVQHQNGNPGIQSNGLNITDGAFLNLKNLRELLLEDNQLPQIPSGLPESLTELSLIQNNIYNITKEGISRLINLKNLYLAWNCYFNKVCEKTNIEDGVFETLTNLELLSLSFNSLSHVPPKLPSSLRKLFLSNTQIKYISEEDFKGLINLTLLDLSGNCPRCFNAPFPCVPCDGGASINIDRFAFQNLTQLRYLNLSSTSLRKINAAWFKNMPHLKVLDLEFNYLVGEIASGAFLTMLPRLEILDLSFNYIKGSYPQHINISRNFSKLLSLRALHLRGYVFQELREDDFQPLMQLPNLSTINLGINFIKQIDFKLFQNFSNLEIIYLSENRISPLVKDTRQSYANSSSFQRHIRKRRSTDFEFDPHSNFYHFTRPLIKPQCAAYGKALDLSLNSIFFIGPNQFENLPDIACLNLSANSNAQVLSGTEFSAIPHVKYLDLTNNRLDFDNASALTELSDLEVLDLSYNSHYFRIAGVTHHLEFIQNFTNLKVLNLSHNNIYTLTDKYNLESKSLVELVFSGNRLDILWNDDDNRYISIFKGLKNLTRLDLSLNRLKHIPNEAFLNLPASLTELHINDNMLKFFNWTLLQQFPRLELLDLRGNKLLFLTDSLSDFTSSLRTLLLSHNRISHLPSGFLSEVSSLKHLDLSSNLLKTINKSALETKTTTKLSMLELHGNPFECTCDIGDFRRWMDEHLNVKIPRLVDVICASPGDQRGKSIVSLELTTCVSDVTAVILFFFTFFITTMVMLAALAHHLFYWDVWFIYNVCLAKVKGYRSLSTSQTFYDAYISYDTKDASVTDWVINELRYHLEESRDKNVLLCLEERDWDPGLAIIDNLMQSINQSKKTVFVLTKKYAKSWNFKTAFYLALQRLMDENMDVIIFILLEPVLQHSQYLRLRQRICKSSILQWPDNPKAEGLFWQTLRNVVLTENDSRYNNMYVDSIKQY
In words: TLR8 inhibition reporter assay (HEK-Blue SEAP). The note with it: HEK-Blue cells overexpressing human TLR8, stimulated with R848 15.9 μM, 22 hour incubation. A digest of the protocol:
as §1

Regarding `COc1cc(-c2ccc3c(C(=O)NC4CCNCC4)c[nH]c3c2)cn2ncnc12` [Example 197, 6-(8-methoxy-[1,2,4]triazolo[1,5-a]pyridin-6-yl)-N-(piperidin-4-yl)-1H-indole-3-carboxamide], the IC50 – broadly, the midpoint of a concentration-inhibition curve – against human TLR9 worked out at 28200 nM; on human TLR7, 319 nM; on human TLR8 it was 2360 nM.

For the molecule `Cc1cc2c(C3CCN(C4COC4)CC3)n[nH]c2cc1-c1cc(C)c2ncnn2c1` [Example 73, 8-methyl-6-(5-methyl-3-(1-(oxetan-3-yl)piperidin-4-yl)-1H-indazol-6-yl)-[1,2,4] triazolo[1,5-a]pyridine], the IC50 was determined as 9070 nM on human TLR9, 52.3 nM against human TLR7 and 4.3 nM on human TLR8.

For `CCc1cc2c(OC3CCC(N(C)C)CC3)n[nH]c2cc1-c1cc(C)c2ncnn2c1` (single isomer, unassigned) [Example 192, 4-((5-ethyl-6-(8-methyl-[1,2,4]triazolo[1,5-a]pyridin-6-yl)-1H-indazol-3-yl)oxy)-N,N-dimethylcyclohexan-1-amine], the IC50 at human TLR9 worked out at 7890 nM; against human TLR7, 0.7 nM; at human TLR8, 0.1 nM.

For `CCc1cc2c(OC3CCC(N(C)C)CC3)n[nH]c2cc1-c1cc(C)c2ncnn2c1` (single isomer, unassigned) [Example 191, 4-((5-ethyl-6-(8-methyl-[1,2,4]triazolo[1,5-a]pyridin-6-yl)-1H-indazol-3-yl)oxy)-N,N-dimethylcyclohexan-1-amine], the figures for the IC50 on human TLR9, against human TLR7 and against human TLR8 were 14600 nM, 2.6 nM and 0.5 nM, respectively.

Consider `CCc1cc2c(C3CCC(NCC(=O)N(C)C)CC3)n[nH]c2cc1-c1cc(C)c2ncnn2c1` (stereo not drawn) [Example 95, 2-((4-(5-ethyl-6-(8-methyl-[1,2,4]triazolo[1,5-a]pyridin-6-yl)-1H-indazol-3-yl)cyclohexyl)amino)-N,N-dimethylacetamide], for which the IC50 on human TLR9 stood at 10800 nM; against human TLR7, 5.4 nM; on human TLR8 it was 0.2 nM.

As for `CCc1cc2c(C3CCN(C(=O)CN(C)C)CC3)n[nH]c2cc1-c1cc(C)c2ncnn2c1` [Example 87, 2-(dimethylamino)-1-(4-(5-ethyl-6-(8-methyl-[1,2,4]triazolo[1,5-a]pyridin-6-yl)-1H-indazol-3-yl)piperidin-1-yl)ethan-1-one], the IC50 came to 11600 nM on human TLR9, 6.3 nM at human TLR7 and 0.6 nM against human TLR8.

For the molecule `Cc1cc2c(C3CCNCC3)n[nH]c2cc1-c1cc(C)c2nnnn2c1` [Example 74, 8-methyl-6-(5-methyl-3-(piperidin-4-yl)-1H-indazol-6-yl) tetrazolo[1,5-a]pyridine], the IC50 at human TLR9 was determined as 4940 nM; on human TLR7, 49.3 nM; at human TLR8, 15.5 nM.

Turning to `Cc1cc(-c2cc3[nH]nc(C4CCC(N5CC6(CCOC6)C5)CC4)c3cc2C(C)C)cn2ncnc12` (stereo not drawn) [Example 158, 2-(4-(5-isopropyl-6-(8-methyl-[1,2,4]triazolo[1,5-a]pyridin-6-yl)-1H-indazol-3-yl)cyclohexyl)-6-oxa-2-azaspiro[3.4]octane], the IC50 on human TLR9 came out at 9850 nM; against human TLR7 it was 0.5 nM; against human TLR8, 0.2 nM.

As to `Cc1cc2c(C3CCNC3)n[nH]c2cc1-c1cc(C)c2ncnn2c1` (stereo not drawn) [Example 26, 8-methyl-6-(5-methyl-3-(pyrrolidin-3-yl)-1H-indazol-6-yl)-[1,2,4]triazolo[1,5-a]pyridine], the IC50 was 1320 nM at human TLR9, 18.8 nM at human TLR7 and 1.5 nM on human TLR8.

Consider `Cc1cc(-c2cc(C)c3ncnn3c2)cc2[nH]nc(C3CCN(CC(C)(C)O)CC3)c12` [Example 77, 2-methyl-1-(4-(4-methyl-6-(8-methyl-[1,2,4]triazolo[1,5-a]pyridin-6-yl)-1H-indazol-3-yl)piperidin-1-yl)propan-2-ol], for which the concentration for half-maximal inhibition (IC50) against human TLR9 was 2190 nM; on human TLR7, 11.1 nM; against human TLR8 it was 10.9 nM.

Take `Cc1cc2c(C3CC(N(C)C)C3)n[nH]c2cc1-c1cc(C)c2ncnn2c1` (single isomer, unassigned) [Example 6, N,N-dimethyl-3-(5-methyl-6-(8-methyl-[1,2,4]triazolo[1,5-a]pyridin-6-yl)-1H-indazol-3-yl)cyclobutan-1-amine]: the IC50 against human TLR9 turned out to be 3210 nM; on human TLR7, 9.3 nM; against human TLR8, 0.3 nM.

Take `Cc1cc(-c2cc3[nH]nc(C4CCC(N5CC(F)(F)C5)CC4)c3cc2C(C)C)cn2ncnc12` (single isomer, unassigned) [Example 134, 6-(3-(4-(3,3-difluoroazetidin-1-yl)cyclohexyl)-5-isopropyl-1H-indazol-6-yl)-8-methyl-[1,2,4]triazolo[1,5-a]pyridine]: the IC50 worked out at 15900 nM against human TLR9, 2.5 nM against human TLR7 and 0.2 nM on human TLR8.

The record behind these values is patent publication US12172995B2, “Substituted indole and indazole compounds” (BRISTOL-MYERS SQUIBB COMPANY, priority 2018, dated 2024).
